The values below come from ChEMBL document CHEMBL1201862, “PubChem BioAssay data set” (2004).

Activity calls are given as the source filed them. Some results are limits rather than exact numbers.

Assay [1] concerns the target Glyceraldehyde-3-phosphate dehydrogenase (Homo sapiens, UniProt P04406).
The target in assay [2] is T1, Bcl-2-related protein A1 (Mus musculus, UniProt Q07440).
T1 sequence (Q07440 whole entry): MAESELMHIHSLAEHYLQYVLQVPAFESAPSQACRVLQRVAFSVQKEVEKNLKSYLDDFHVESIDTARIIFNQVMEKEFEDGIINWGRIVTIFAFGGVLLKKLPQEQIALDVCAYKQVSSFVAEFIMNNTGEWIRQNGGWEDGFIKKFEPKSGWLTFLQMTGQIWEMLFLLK
Nature of the assay: small-molecule antagonists of Bfl-1/BH3 interaction – biochemical, TR-FRET, mouse Bfl-1, confirmation (AID 621).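 Further: TR-FRET binding of GST-Bfl-1 to FITC-labelled Bid peptide via terbium antibody.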 A general note: In TR-FRET formats the signal depends on donor and acceptor labels being close together.

For assay [3], the target named is T1, Bcl-2-related protein A1. Description: Bfl-1 binding inhibitors, SAR follow-up, biochemical, fluorescence polarization (AID 1070). (In general: Fluorescence polarisation rises when a labelled molecule tumbles more slowly, as on binding a larger partner.)
A short description of assay [4]: Luminescent dose response cell-based high throughput screening assay for inhibitors of the Janus kinase 2 mutant JAK2V617F. [Related pubchem assays: 1446 (Primary screen.), 1521 (Confirmation assay.), 1486 (Counter screen.)]. It is filed as functional.
The target in assay [5] is T2, Replicative DNA helicase DnaB (Mycobacterium tuberculosis, UniProt P9WMR3).
T2 sequence (P9WMR3 whole entry): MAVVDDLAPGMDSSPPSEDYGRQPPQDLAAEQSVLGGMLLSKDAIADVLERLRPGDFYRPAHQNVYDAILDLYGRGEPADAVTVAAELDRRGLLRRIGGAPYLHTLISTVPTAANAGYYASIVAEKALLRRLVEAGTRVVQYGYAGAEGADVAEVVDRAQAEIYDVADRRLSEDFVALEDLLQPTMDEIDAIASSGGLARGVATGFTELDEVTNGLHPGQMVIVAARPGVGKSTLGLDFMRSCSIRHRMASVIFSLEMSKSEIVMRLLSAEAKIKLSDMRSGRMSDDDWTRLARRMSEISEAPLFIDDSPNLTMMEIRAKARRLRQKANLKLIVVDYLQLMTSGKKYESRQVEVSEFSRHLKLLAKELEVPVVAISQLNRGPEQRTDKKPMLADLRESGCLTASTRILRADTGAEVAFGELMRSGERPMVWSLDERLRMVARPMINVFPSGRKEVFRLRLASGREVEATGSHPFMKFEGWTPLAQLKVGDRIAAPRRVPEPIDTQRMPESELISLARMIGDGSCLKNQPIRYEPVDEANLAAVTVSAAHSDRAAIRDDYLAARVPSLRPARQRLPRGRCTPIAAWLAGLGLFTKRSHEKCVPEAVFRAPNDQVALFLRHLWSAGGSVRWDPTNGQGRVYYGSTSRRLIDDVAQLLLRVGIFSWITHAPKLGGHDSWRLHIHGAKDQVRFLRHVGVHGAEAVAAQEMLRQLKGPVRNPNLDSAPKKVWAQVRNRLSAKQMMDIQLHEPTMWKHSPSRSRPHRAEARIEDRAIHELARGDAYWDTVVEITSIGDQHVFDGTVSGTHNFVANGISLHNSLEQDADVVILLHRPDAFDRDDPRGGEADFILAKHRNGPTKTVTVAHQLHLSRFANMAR
Nature of the assay: DnaB intein splicing inhibitors, dose response, biochemical, cell-free fluorescence (AID 449749). It is filed as functional.

Assay [6] in a line: viability of HCT116 lacking mutant beta-catenin – cell-based, human colon tumor, dose response (AID 1045).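 Further: HCT116 colon tumor cells with beta catenin knocked out; cells exposed to compound for 60 hours.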 Format: functional.
Assay [7] concerns the target T3, Protein RecA (Mycobacterium tuberculosis, UniProt P9WHJ3).
T3 sequence (P9WHJ3 whole entry): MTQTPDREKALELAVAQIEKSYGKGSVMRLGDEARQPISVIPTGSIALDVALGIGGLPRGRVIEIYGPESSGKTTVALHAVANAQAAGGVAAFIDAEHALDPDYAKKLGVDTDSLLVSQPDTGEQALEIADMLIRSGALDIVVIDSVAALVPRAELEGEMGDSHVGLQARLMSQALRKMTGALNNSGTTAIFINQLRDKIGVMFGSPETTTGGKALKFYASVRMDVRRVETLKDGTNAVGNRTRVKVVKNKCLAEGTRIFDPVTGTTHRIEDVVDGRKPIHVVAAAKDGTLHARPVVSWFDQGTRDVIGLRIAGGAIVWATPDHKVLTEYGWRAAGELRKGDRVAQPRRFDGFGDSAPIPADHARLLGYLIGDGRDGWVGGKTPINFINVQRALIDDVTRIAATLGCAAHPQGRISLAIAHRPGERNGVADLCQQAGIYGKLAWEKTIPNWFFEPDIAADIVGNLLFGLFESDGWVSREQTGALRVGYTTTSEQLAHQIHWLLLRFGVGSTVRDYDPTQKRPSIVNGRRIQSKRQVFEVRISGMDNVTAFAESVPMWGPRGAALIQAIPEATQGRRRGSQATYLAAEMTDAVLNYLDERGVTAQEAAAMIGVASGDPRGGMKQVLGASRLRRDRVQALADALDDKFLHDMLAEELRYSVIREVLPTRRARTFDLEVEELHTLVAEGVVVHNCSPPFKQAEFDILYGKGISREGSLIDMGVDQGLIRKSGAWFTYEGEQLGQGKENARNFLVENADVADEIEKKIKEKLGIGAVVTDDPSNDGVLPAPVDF
Nature of the assay: Fluorescence Cell-Free Homogeneous Dose Retest to Identify Inhibitors of RecA-Intein Splicing Activity. [Related pubchem assays (depositor defined):AID2097, AID2223, AID489010, AID492950]. Format: functional.

The nature of assay [8]: Intein inhibitors as potential Tuberculosis drugs, a cytotoxicity screen. [Related pubchem assays (depositor defined):AID2221, AID2223, AID434968, AID435010, AID449749, AID449750, AID489010]. It is filed as functional.
Assay [9] in a line: viability of PTEN-deleted HCT116 cells – cell-based, HCT116 PTEN knockout, dose response (AID 1047).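 Further: HCT116 colon tumor cells with PTEN knocked out; cells exposed to compound for 60 hours before readout; potency for loss of cell viability measured by luminescence.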 It is filed as functional.
Assay [10] deals with BJ. Description: growth inhibition of engineered Ras-driven BJ cells – cell-based, alamar blue fluorescence, cherrypicked samples, dose response (AID 2631).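 Further: confirmatory dose-response assay in RAS-dependent BJ fibroblasts engineered with TERT, LT and ST, with cytotoxicity read by fluorescence.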 Format: functional. The conditions noted are these: Homo sapiens. Background: Resazurin is reduced to fluorescent resorufin, in cell work by metabolically active cells.
Assay [11] relates to Vero. Description: mammalian cell viability reduction – secondary assay, cytotoxicity control for West Nile virus antiviral project, dose response (AID 1650). The conditions noted are these: Chlorocebus sabaeus. Format: functional.
The test system of assay [12] is BJ. Nature of the assay: cells. As to conditions: Homo sapiens. It is filed as functional, cell-based.
Assay [13] deals with BJ. Description: BJ-TERT-LT-ST fibroblast viability loss – cell-based, RAS-independent, luminescence, dose response (AID 1935).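 Further: BJ fibroblasts immortalized with TERT plus LT and ST oncogenes.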 As to conditions: Homo sapiens. It is filed as functional.
The subject of assay [14] is Streptococcus sp. 'group A'. Description: Streptococcus pyogenes SK(-)GAS viability under kanamycin – luminescence, BacTiterGlo, confirmation, counter-screen for streptokinase expression inhibitor project, dose response (AID 1900). Format: functional, organism-based.
Assay [15] is described as follows: Trypanosoma cruzi growth suppression in host cells – NIH3T3 host cells, beta-gal luminescence, confirmation (AID 2044).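 Further: intracellular parasites grown in NIH/3T3 mouse fibroblasts as host cells; luminescent beta-galactosidase reporter signal from transgenic T. cruzi replicating inside host cells; inhibitors lower the luminescence signal.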 Format: functional, cell-based.
Assay [16] relates to BJ. Nature of the assay: BJ-TERT fibroblast viability loss – cell-based, RAS-independent, luminescence, dose response (AID 1933). It is filed as functional. As to conditions: Homo sapiens.
Assay [17] has as its system Streptococcus. Description: GAS UMAA2166 growth inhibition – luminescence, BacTiterGlo, counter-screen for streptokinase expression inhibitor project, dose response (AID 1915).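 Further: potency for reduction of bacterial viability or growth.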 Format: functional, organism-based.
A short description of assay [18]: NIH3T3 cell viability loss – ATP luminescence, mouse fibroblasts, counter-screen, dose response (AID 2010).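 Further: cells exposed to compound for about 90 hours before reading.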 Format: functional, cell-based.
Assay [19] has as its system Vero. Nature of the assay: cells. Format: functional, cell-based. The conditions noted are these: Chlorocebus sabaeus.
Assay [20] can be described thus: cells. Format: functional, cell-based.
Assay [21] in a line: cells. It is filed as functional, cell-based. The source holds these as a separate data set.
Assay [22] in a line: DRD fibroblast viability loss – cell-based, non-viral oncogenic, luminescence, dose response (AID 1934). Format: functional. As to conditions: Homo sapiens.
A short description of assay [23]: HIV-1 Vif–A3G interaction blockers – biochemical, TR-FRET, GST-Vif 1-94, biotin-A3G peptide, dose response retest, primary screen (AID 1117319).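 Further: TR-FRET signal of purified GST-Vif binding a biotinylated A3G peptide; inhibitors lower the FRET signal by blocking Vif and A3G binding.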 It is filed as functional.
Assay [24] deals with Glutathione-S-transferase (Schistosoma japonicum, UniProt Q26513). Nature of the assay: GST-antibody interaction or FRET quenching – biochemical, TR-FRET, artefact control for Vif-APOBEC3G degradation inhibitor project, dose response (AID 1117362). It is filed as functional.
Chain of Glutathione-S-transferase (Q26513 whole entry): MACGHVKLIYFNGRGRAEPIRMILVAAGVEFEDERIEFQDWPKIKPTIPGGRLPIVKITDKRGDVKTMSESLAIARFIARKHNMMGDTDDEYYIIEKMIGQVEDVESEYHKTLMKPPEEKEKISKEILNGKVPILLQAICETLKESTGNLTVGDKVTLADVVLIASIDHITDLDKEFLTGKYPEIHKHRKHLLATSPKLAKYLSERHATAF

Chain of Glyceraldehyde-3-phosphate dehydrogenase (P04406 whole entry): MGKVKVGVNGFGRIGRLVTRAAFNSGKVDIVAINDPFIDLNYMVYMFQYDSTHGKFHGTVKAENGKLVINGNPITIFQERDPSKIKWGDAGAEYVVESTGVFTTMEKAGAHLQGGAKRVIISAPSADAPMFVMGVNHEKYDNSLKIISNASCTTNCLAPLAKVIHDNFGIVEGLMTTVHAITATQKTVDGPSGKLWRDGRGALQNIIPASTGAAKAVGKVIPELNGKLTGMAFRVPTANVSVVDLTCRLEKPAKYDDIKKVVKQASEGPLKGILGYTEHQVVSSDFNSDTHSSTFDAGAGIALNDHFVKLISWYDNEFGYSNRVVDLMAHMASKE

Usually IC50 stands for the midpoint of a concentration-inhibition curve. Consider `CN1CCN(C2=C(Cl)C(=O)N(c3ccc(Cl)cc3Cl)C2=O)CC1`, for which the IC50 was > 100 µM (not active) in assay [1], 1.36 µM (active) in [2] and 2.62 µM (active) in assay [3].
For orientation: AC50 means the concentration giving half of the maximal activity seen. The term EC50 denotes the midpoint of the concentration-response curve. A word on the CC50: it is the concentration at which the toxic effect on the cells reaches its halfway point. For `COc1cccc(N(C(=O)CCl)C(C(=O)NCCc2ccccc2)c2cccs2)c1` (stereo not given), the half-inhibitory concentration (IC50) in assay [4] is 0.581 µM (active). In addition, the AC50 in assay [5] is 2.11 µM (active). For the same compound, the EC50 in assay [6] was 1.48 µM (active); in assay [7], 0.329 µM (active); in assay [9], 1.59 µM (active); in assay [10], 3.95 µM (active). Moreover, the CC50 in assay [8] was 0.2 µM (active).
`Oc1nc(-c2ccccn2)nc2sc(-c3ccccc3)cc12`: the 50% cytotoxic concentration (CC50) in [11] is 2.08 µM (active). Further, the half-maximal effective concentration (EC50) in assay [12] was 16.2 µM (active); in assay [13] it was 15.6 µM (inconclusive); in assay [14], 0.571 µM (active); in assay [15], 0.216 µM (active); in assay [16], 17.6 µM (active); in assay [17] it was 13.2 µM (active). Moreover, the EC50 in assay [18] is 1.27 µM (active); in assay [20], 4.87 µM (active); in [21], 16.6 µM (active); in assay [22], 121 µM (inconclusive). For the same compound, in assay [19], the IC50 was 7 µM (active).
As to `CCOc1ccc(N/C([S-])=C(/C(=O)c2ccc(C)c([N+](=O)[O-])c2)[n+]2ccccc2)cc1`, the IC50 in assay [23] is > 100 µM (active).
Turning to `O=C(COC(=O)C12CC3CC(CC(Br)(C3)C1)C2)Nc1ccc2[nH]c(O)nc2c1`, the IC50 in assay [23] is > 100 µM (active); in assay [24], 73.5 µM (active).
